Assay [1] in a line: Inhibition of HDAC by fluorescence assay.
Another assay relates to HCT-116. Put plainly: Anticancer activity against human HCT116 cells after 72 hrs by MTT assay. In kind it is functional. (In general: Tetrazolium assays rely on reduction of a dye to a coloured formazan, in cell work by metabolically active cells.)
Assay [2] is described as follows: Ratio of MS-275 IC50 to compound IC50 to for HDAC.
Another assay has as its system A2780. Nature of the assay: Anticancer activity against human A2780 cells after 72 hrs by MTT assay. The class given is functional.
Assay [3] deals with DU-145. Put plainly: Anticancer activity against human DU145 cells after 72 hrs by MTT assay. The class given is functional.
A further assay has as its system MDA-MB-231. Put plainly: Anticancer activity against human MDA-MB-231 cells after 72 hrs by MTT assay. In kind it is functional.
For assay [4], the system named is DU-145. Put plainly: Ratio of MS-275 GI to compound GI for human DU145 cells. In kind it is functional.

pIC50: −log10 of the molar value.

Broadly, the pIC50 is −log10 of the IC50, conventionally taken in molar units. `Cc1ccc(S(=O)(=O)NCC(=O)c2ccc(C(=O)Nc3ccccc3N)cc2)cc1` gave a pIC50 in assay [1] of 4.65. Further, the GI with HCT-116 is 18.7 µM; in the assay with A2780, above 100 µM; in the assay on DU-145 [3], 37.7 µM; in the assay on MDA-MB-231, 18.4 µM. In addition, the Ratio IC50 in assay [2] worked out at 4.

In assay [1], `Nc1ccc(S(=O)(=O)NCC(=O)c2ccc(C(=O)Nc3ccccc3N)cc2)cc1` showed a pIC50 of 5.42. Moreover, in the assay with DU-145 [4], the Ratio amounted to 50. Moreover, the GI in the assay with A2780 is 5.7 µM; with DU-145 [3] it was 0.16 µM.

As for `Nc1cccc(C(=O)NCC(=O)c2ccc(C(=O)Nc3ccccc3N)cc2)c1`, in assay [1], the pIC50 was 4.15.

`Nc1ccccc1NC(=O)c1ccc(C(=O)CNS(=O)(=O)c2cccnc2Cl)cc1` showed a pIC50 in assay [1] of 4.95. Against the preceding compound, the pIC50 is 0.80 log units higher.

In assay [1], `Nc1cc(C(=O)NCC(=O)c2ccc(C(=O)Nc3ccccc3N)cc2)ccn1` showed a pIC50 of 4.37.

Regarding `Nc1ccccc1NC(=O)c1ccc(C(=O)CNC(=O)c2ccccc2)cc1`, in assay [1], the pIC50 was below 4.00.

`Nc1ccc(C(=O)NCC(=O)c2ccc(C(=O)Nc3ccccc3N)cc2)cc1` gave a pIC50 in assay [1] of 4.30.

For the compound `Nc1ccccc1NC(=O)c1ccc(CNC(=O)OCc2cccnc2)cc1` [ENTINOSTAT], in assay [1], the pIC50 was 4.89. In addition, the GI in the assay with HCT-116 came out at 3.1 µM; in the assay with A2780, 5.7 µM; in the assay with DU-145 [3], 7.9 µM; in the assay with MDA-MB-231, 2.8 µM.

The compound `Nc1ccccc1NC(=O)c1ccc(C(=O)CNC(=O)c2ccccn2)cc1` gave a pIC50 in assay [1] of 4.52.

These data come from ChEMBL document CHEMBL1806487, “Design, synthesis and docking studies on benzamide derivatives as histone deacetylase inhibitors” (Bioorg Med Chem Lett, 2011).
